{"source": "patent US6525094B1", "about": "“Method of treating hair loss using diphenylether derivatives” (The University of Texas Southwestern Medical Center, priority 1999, dated 2003)", "test_system": "male Sprague Dawley rats", "assay": "Cardiotoxicity Assay (heart-to-body weight ratio)", "assay_type": "in vivo, rat", "details": "250 μg of test compound per kg subcutaneously once daily for 28 days, hearts weighed on day 30", "from_the_text": "The cardiotoxicity assay measures the potential of a test compound to adversely affect the cardiovascular system. As thyroid hormone (T3) damages the cardiovascular system, the heart enlarges. See, e.g., Gomberg-Maitland et al., “Thyroid hormone and Cardiovascular Disease”, American Heart Journal, Vol. 135(2), pp. 187-196 (1998); Klein and Ojamaa, “Thyroid Hormone and the Cardiovascular System”, Current Opinion in Endocrinology and Diabetes, Vol. 4, pp.341-346 (1997); and Klemperer et al., “Thyroid Hormone Therapy and Cardiovascular Disease”, Progress in Cardiovascular Diseases, Vol. 37 (4), pp. 329-336 (1996). This increases the weight of the heart relative to whole body weight. The cardiotoxicity assay herein below is used to test compounds for potentially adverse cardiac effects by measuring their effect on the heart-to-body weight ratio.\nTwo groups each of six male Sprague Dawley rats (Harlan Sprague Dawley, Inc., Indianapolis, Ind.) (each weighing from approximately 220 grams to 235 grams) are utilized. The first group is a vehicle control group and the second group is a test compound group. The length of the assay is 30 days, with treatment of vehicle or test compound in vehicle daily for 28 of those days as described below.\nPrior to initiation of the assay, each rat is allowed to acclimate to standard environmental conditions for 5 days. […]"}
{"smiles": "N[C@@H](Cc1cc(I)c(Oc2ccc(O)c(I)c2)c(I)c1)C(=O)O", "note": "[Example T3, thyronine]", "values": [{"measurement": "cardiac-sparing (index C = RT/RV, heart/body weight ratio of test compound group divided by that of vehicle control group; C less than 1.3 = cardiac-sparing)", "value": "not cardiac-sparing"}]}
{"smiles": "N[C@@H](Cc1cc(I)c(Oc2cc(I)c(O)c(I)c2)c(I)c1)C(=O)O", "note": "[Example T4, thyroxine]", "values": [{"measurement": "cardiac-sparing (index C = RT/RV, heart/body weight ratio of test compound group divided by that of vehicle control group; C less than 1.3 = cardiac-sparing)", "value": "not cardiac-sparing"}]}
